The conditions of series [1]: CLL patients, background; cited from earlier work.
The next series concerns MCF7 (PIK3CA mut). The series is described as follows: Tumor cell proliferation, CCK8 method, MCF7. It is filed as cell-based, human. To be noted: Homo sapiens. The procedure:
(§1) The IC50 value was calculated using Graphpad Prism V5.0 software.

The next series concerns KPL4 (PIK3CA mut). The series is described as follows: Tumor cell proliferation, CCK8 method, KPL4. Type of series: cell-based. The procedure: as §1
In general terms: Formazan colour is commonly taken as a measure of viable cells.

A further series concerns SW48 (PIK3CA mut). The experiment in a line: Tumor cell proliferation, CCK8 method, SW48. It is filed as cell-based. To be noted: Homo sapiens. The procedure:
as §1

Another series deals with ZR-75-1 (PTEN loss). The experiment in a line: Tumor cell proliferation, CCK8 method, ZR-75-1. Type of series: cell-based. To be noted: Homo sapiens; CCK8, ZR-75-1. The procedure:
as §1

Series [2] in a line: Pharmacokinetic determination in SD rats, tail vein injection. Type of series: in vivo. To be noted: rat, plasma; male SD rats, intravenous, 1 mg/kg. How it is done: Healthy SD rats weighing 200±20 g, male, were randomly divided into groups with 6 rats in each group, and were administered by tail vein injection at a dose of 1 mg/kg. The blood sampling time points for pharmacokinetic analysis: 5 min, 15 min, 30 min, 2 h, 4 h, 6 h, 8 h, 24 h, and 48 h after administration. About 0.3 mL of whole blood was collected via the orbit and placed in a heparinized test tube, centrifugalized at 6000 rpm for 10 min to separate the plasma, and store at −80° C. for testing. The plasma concentrations of the each compounds were detected with an Agilent liquid mass spectrometry (LC-MS/MS, Agilent Jet Stream Electrometric spray ion), and the relevant pharmacokinetic parameters were calculated using the WinNonLin 7.0 pharmacokinetic software non-compartment model method.

The conditions of series [3]: background; cited from earlier work.
The target in a further series is T1, PI3Kα (Homo sapiens, UniProt P42336).
T1 construct: purchased Carna Bioscience
T1 sequence (P42336 whole entry): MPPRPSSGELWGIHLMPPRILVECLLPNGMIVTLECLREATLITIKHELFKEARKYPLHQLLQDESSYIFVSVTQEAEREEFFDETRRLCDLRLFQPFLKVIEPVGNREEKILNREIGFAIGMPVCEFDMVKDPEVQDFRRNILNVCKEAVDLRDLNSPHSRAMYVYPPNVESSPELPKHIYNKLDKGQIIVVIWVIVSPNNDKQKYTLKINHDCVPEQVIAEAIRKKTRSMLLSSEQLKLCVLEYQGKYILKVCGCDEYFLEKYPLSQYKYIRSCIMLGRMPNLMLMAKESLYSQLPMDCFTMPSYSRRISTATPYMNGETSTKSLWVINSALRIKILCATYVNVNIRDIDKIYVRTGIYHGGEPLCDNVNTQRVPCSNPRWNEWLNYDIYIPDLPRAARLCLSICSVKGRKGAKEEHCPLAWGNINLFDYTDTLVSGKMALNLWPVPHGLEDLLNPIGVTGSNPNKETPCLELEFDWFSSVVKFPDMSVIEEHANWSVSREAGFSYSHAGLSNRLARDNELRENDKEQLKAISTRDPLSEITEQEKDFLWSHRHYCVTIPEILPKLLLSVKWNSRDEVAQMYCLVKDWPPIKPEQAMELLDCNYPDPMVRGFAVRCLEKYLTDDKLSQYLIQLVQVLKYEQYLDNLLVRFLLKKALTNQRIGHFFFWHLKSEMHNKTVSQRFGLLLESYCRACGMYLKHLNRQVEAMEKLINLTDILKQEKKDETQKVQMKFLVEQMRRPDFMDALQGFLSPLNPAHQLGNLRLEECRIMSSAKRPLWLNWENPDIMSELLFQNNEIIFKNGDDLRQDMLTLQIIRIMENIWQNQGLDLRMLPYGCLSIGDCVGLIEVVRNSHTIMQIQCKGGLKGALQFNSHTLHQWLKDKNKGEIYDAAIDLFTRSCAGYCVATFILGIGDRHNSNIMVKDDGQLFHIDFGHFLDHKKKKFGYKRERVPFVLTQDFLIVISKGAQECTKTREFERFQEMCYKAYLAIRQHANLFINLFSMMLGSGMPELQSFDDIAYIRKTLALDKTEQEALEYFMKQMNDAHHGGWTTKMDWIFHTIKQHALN
T1 sequence (P27986 whole entry partner): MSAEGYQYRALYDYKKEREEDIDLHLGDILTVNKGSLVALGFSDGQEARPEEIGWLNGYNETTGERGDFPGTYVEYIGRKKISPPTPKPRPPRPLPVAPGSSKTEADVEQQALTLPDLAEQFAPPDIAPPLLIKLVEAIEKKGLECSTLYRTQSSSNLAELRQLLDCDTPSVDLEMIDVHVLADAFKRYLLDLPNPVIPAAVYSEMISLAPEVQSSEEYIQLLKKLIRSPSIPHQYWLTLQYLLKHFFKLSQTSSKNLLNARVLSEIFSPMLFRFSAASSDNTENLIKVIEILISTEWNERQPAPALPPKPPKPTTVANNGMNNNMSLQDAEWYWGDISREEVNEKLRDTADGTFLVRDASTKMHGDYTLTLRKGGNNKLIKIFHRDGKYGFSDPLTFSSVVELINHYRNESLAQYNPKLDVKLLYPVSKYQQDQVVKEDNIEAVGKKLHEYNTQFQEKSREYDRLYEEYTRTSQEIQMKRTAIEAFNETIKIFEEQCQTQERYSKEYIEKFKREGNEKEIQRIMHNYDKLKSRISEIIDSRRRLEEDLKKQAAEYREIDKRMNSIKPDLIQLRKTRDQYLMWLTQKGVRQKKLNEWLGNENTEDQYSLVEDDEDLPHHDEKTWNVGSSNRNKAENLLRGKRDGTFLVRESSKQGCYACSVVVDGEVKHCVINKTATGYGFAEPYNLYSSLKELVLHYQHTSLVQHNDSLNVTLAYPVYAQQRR
The experiment in a line: PI3Kα molecular activity test (ADP-GLO). Type of series: biochemical. Particulars: for Selectivity (PI3Kδ IC50/PI3KαIC50): PI3Kδ IC50/PI3Kα IC50; for IC50: recombinant protein, 100 μM ATP, 2 hours at room temperature. In general terms: In ADP-Glo the light output rises with the ADP produced.

The target in the next series is T2, PI3Kδ (Homo sapiens, UniProt O00329).
T2 construct: purchased Carna Bioscience
T2 sequence (O00329 whole entry): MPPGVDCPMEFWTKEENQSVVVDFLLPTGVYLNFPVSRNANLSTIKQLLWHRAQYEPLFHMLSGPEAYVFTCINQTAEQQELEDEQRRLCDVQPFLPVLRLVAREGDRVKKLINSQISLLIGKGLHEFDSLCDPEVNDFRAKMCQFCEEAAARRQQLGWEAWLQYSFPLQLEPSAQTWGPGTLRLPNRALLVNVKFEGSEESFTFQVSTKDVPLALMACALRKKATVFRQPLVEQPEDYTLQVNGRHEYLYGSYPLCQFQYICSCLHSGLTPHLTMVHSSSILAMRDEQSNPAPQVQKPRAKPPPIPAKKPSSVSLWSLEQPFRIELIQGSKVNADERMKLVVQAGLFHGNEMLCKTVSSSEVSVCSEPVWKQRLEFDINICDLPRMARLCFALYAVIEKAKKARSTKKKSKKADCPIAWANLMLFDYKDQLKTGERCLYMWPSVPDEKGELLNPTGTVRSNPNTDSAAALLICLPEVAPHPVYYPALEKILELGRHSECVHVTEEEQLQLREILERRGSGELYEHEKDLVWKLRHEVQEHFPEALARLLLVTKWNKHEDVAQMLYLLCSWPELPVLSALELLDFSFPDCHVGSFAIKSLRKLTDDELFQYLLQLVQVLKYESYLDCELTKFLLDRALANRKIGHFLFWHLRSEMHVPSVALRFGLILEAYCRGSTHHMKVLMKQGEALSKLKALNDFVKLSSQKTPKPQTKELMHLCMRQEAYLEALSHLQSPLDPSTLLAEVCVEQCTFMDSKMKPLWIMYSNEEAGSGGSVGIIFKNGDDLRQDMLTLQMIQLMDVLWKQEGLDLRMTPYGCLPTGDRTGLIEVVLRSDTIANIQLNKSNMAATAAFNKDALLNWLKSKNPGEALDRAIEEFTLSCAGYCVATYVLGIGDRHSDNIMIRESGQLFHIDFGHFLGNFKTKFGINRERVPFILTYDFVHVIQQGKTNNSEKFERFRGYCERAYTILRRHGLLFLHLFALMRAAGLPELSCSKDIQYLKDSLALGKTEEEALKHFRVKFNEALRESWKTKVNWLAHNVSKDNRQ
T2 sequence (P27986 whole entry partner): as the sequence (P27986 whole entry partner) above
The series is described as follows: PI3Kδ molecular activity test (ADP-GLO). Type of series: biochemical. To be noted: recombinant protein.

The next series deals with Kasumi-1 cell line. The series is described as follows: In vivo efficacy, Kasumi-1 subcutaneous transplanted tumor in nude mice. Particulars: 10 mg/Kg qd for 21 days, Kasumi-1 tumor, female nude mice, FIG. 1. How it is done:
Female nude mice, weighing 20±3 g, were inoculated subcutaneously with Kasumi-1 cell line in their right axilla. The cell inoculation accounted for 1×10^7/mouse. After tumor formation, the diameter of the transplanted tumor was measured with a vernier caliper. When the tumor grown to 100-300 mm^3, the animals were divided into a model control group and administration groups with 6 […] in each group depending on body weight and tumor volume. The model control group was given the same amount of blank solvent. After grouping, the drugs were administered daily (qd) with a doge of 10 mg/Kg for 21 consecutive days. During the experiment, the diameter of the transplanted tumor and the weight of the mice were measured twice a week. The calculation formula of the tumor volume (TV) was: TV=½×a×b^2, where a and b represented length and width respectively. The relative tumor volume (RTV) was calculated from the measurement results, the calculation formula was: RTV=Vt/V0, where V0 was the tumor volume measured as grouping and administering (i.e. d0), and Vt was the tumor volume at each measurement. The evaluation index of anti-tumor activity was the relative tumor proliferation rate T/C(%), and the calculation formula was as follows: T/C(%)=(TRTV/CRTV)×100%, where TRTV: RTV of the treatment group; and CRTV: RTV of the negative control group.

[4] abbreviates: CCK8, MCF7, read-out: MCF7 (PIK3CA mut) proliferation IC50.
The mark [5] stands for this setting: CCK8, KPL4, read-out: KPL4 (PIK3CA mut) proliferation IC50.
[6] abbreviates: CCK8, SW48, read-out: SW48 (PIK3CA mut) proliferation IC50.

The structures appear in SMILES notation. Where two headings read alike, the source gives them in different places.

Consider `CC[C@H](Nc1ncnc2[nH]cnc12)c1nc2cccc(F)c2c(=O)n1-c1ccccc1` [Idelalisib], for which the liver side effect result in series [1] is given as “elevated transaminase”.
The term Vd denotes the apparent volume that relates the amount in the body to the concentration in plasma or blood. A low value points to little distribution into tissue. The clearance is the rate of elimination divided by the concentration. What is called half-life is the time in which the quantity being followed falls by half. `COc1c(OCCCN2CCOCC2)ccc2c1N=C(NC(=O)c1cnc(N)nc1)N1CCN=C21` [Copanlisib, reference compound]: the IC50 in the series with MCF7 (PIK3CA mut) (MCF7, read-out: MCF7 (PIK3CA mut) proliferation IC50) is under 20 nM; in the series with KPL4 (PIK3CA mut) (KPL4, read-out: KPL4 (PIK3CA mut) proliferation IC50) it was under 20 nM; in the series on SW48 (PIK3CA mut) (SW48, read-out: SW48 (PIK3CA mut) proliferation IC50) it was under 20 nM; in the series on ZR-75-1 (PTEN loss), under 20 nM. Further, the Vd in series [2] turned out to be 33.5 L/kg. In addition, the clearance in [2] was 36.7 mL/min/kg. In series [2], this molecule gave a half-life of 8.9 h. Moreover, in series [3], the volume of distribution was 32.6 L/kg.
In the case of `COc1c(OC[C@H](O)CN2CCOCC2)ccc2c(=O)n(C)c(NC(=O)c3cnc(N)nc3)nc12` [8a-28, (R)-2-amino-N-(7-(2-hydroxy-3-morpholinopropoxy)-8-methoxy-3-methyl-4-oxo-3,4-dihydroquinazolin-2-yl) pyrimidine-5-carboxamide], the “Selectivity (PI3Kδ IC50/PI3KαIC50)” value on PI3Kα was “II (“II” represents 5-10 times)”. Moreover, the IC50 at PI3Kα is under 20 nM; at PI3Kδ, 20 to 200 nM; in the series on MCF7 (PIK3CA mut) (setting [4]) it was under 20 nM; in the series on KPL4 (PIK3CA mut) (setting [5]), 20 to 200 nM; with SW48 (PIK3CA mut) (setting [6]), 20 to 200 nM; in the series with ZR-75-1 (PTEN loss) it was 200 to 1000 nM. Further, the “tumor growth inhibitory activity” value with Kasumi-1 cell line is given as “strong tumor growth inhibitory activity”.
`COc1c(OC[C@@H](O)CN2CCOCC2)ccc2c(=O)n(C)c(NC(=O)c3cnc(N)nc3)nc12` [8a-27, (S)-2-amino-N-(7-(2-hydroxy-3-morpholinopropoxy)-8-methoxy-3-methyl-4-oxo-3,4-dihydroquinazolin-2-yl) pyrimidine-5-carboxamide]: on PI3Kα, the “Selectivity (PI3Kδ IC50/PI3KαIC50)” value is recorded as “II (“II” represents 5-10 times)”. For the same molecule, the IC50 was under 20 nM at PI3Kα; 20 to 200 nM at PI3Kδ; under 20 nM in the series with MCF7 (PIK3CA mut) (setting [4]); 20 to 200 nM in the series with KPL4 (PIK3CA mut) (setting [5]); 20 to 200 nM in the series on SW48 (PIK3CA mut) (setting [6]); 200 to 1000 nM with ZR-75-1 (PTEN loss). In addition, the “tumor growth inhibitory activity” value in the series with Kasumi-1 cell line is recorded as “strong tumor growth inhibitory activity”.

The record behind these values is US12404269B2, “Aminoquinazolinone and aminoisoquinolinone derivatives and application thereof” (ZHEJIANG UNIVERSITY, priority 2018, dated 2025).
